# According to ChEMBL document CHEMBL1201862, “PubChem BioAssay data set” (2004):
# “And” between values parts separate entries of the source, which are not always exact repeats. Equal entries are not always repeated.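 How tested: cells in 96-well plates exposed to compound for 48 hours at five concentrations. At the GI50, growth is halved.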 The source made the active and inactive calls. No stated cut-off is given here; in the data, active = GI50 up to about 1.1 µM and inactive = higher.
# Legend:
# Assay in all cases: DTP human tumour cell line panel, 48 h
# DMS-273 = test system: DMS-273
# MOLT-4 = test system: MOLT-4
# OVCAR-5 = test system: OVCAR-5
# TK-10 = test system: TK-10
# M19-MEL = test system: M19-MEL
# CAKI-1 = test system: CAKI-1
# COLO 205 = test system: COLO 205
# KM12 = test system: KM12
# EKVX = test system: EKVX
# SW-620 = test system: SW-620
# SNB-78 = test system: SNB-78
# NCI-H226 = test system: NCI-H226
# A549 = test system: A549
# UACC-257 = test system: UACC-257
# SNB-75 = test system: SNB-75
# DLD-1 = test system: DLD-1
# OVCAR-4 = test system: OVCAR-4
# SR = test system: SR
# RPMI-8226 = test system: RPMI-8226
# HCC 2998 = test system: HCC 2998
# LXFL 529 = test system: LXFL 529
# SK-MEL-5 = test system: SK-MEL-5
# HOP-92 = test system: HOP-92
# KM-20L2 = test system: KM-20L2
# NCI-H23 = test system: NCI-H23
# M14 = test system: M14
# OVCAR-8 = test system: OVCAR-8
# K562 = test system: K562
# CCRF-CEM = test system: CCRF-CEM
# SF-539 = test system: SF-539
# RXF 393 = test system: RXF 393
# NCI-H460 = test system: NCI-H460
# UACC-62 = test system: UACC-62
# OVCAR-3 = test system: OVCAR-3
# U-251 = test system: U-251
# SK-MEL-28 = test system: SK-MEL-28
# SK-OV-3 = test system: SK-OV-3
# NCI-H522 = test system: NCI-H522
# SNB-19 = test system: SNB-19
# DMS-114 = test system: DMS-114
# LOX IMVI = test system: LOX IMVI
# IGROV-1 = test system: IGROV-1
# HL-60 = test system: HL-60
# HT-29 = test system: HT-29
# UO-31 = test system: UO-31
# MCF7 = test system: MCF7
# A498 = test system: A498
# HCT-15 = test system: HCT-15
# SN12C = test system: SN12C
# HCT-116 = test system: HCT-116
# SK-MEL-2 = test system: SK-MEL-2
# 786-0 = test system: 786-0
# SF-295 = test system: SF-295
# HOP-18 = test system: HOP-18
# ACHN = test system: ACHN
structure (smiles),measurement,setting,value
COc1ccc(-c2cc(-c3ccco3)c(C#N)c(=O)n2C2OC(COC(C)=O)C(OC(C)=O)C(OC(C)=O)C2OC(C)=O)cc1 (stereo not drawn),GI50,DMS-273,> 100 µM (inactive)
same,GI50,MOLT-4,> 100 µM (inactive)
same,GI50,OVCAR-5,> 100 µM (inactive)
same,GI50,TK-10,20 µM (inactive) and 28.1 µM (inactive)
same,GI50,M19-MEL,76 µM (inactive)
same,GI50,CAKI-1,> 100 µM (inactive) and 63.5 µM (inactive)
same,GI50,COLO 205,> 100 µM (inactive)
same,GI50,KM12,69.7 µM (inactive)
same,GI50,EKVX,> 100 µM (inactive)
same,GI50,SW-620,> 100 µM (inactive)
same,GI50,SNB-78,> 100 µM (inactive)
same,GI50,NCI-H226,2.63 µM (inactive)
same,GI50,A549,> 100 µM (inactive)
same,GI50,UACC-257,> 100 µM (inactive)
same,GI50,SNB-75,> 100 µM (inactive) and 58.9 µM (inactive)
same,GI50,DLD-1,50.9 µM (inactive)
same,GI50,OVCAR-4,> 100 µM (inactive)
same,GI50,SR,> 100 µM (inactive)
same,GI50,RPMI-8226,5.58 µM (inactive) and 3.96 µM (inactive)
same,GI50,HCC 2998,> 100 µM (inactive)
same,GI50,LXFL 529,11.4 µM (inactive)
same,GI50,SK-MEL-5,> 100 µM (inactive)
same,GI50,HOP-92,24.9 µM (inactive) and 22.1 µM (inactive)
same,GI50,KM-20L2,> 100 µM (inactive)
same,GI50,NCI-H23,> 100 µM (inactive)
CCSc1nc2cccc([N+](=O)[O-])c2n1CC,GI50,M14,> 100 µM (inactive)
same,GI50,OVCAR-8,> 100 µM (inactive)
same,GI50,K562,> 100 µM (inactive)
same,GI50,CCRF-CEM,> 100 µM (inactive)
same,GI50,DMS-273,> 100 µM (inactive)
same,GI50,MOLT-4,> 100 µM (inactive)
same,GI50,SF-539,> 100 µM (inactive)
same,GI50,TK-10,> 100 µM (inactive)
same,GI50,RXF 393,> 100 µM (inactive)
same,GI50,CAKI-1,> 100 µM (inactive)
same,GI50,COLO 205,> 100 µM (inactive)
same,GI50,KM12,> 100 µM (inactive)
same,GI50,NCI-H460,> 100 µM (inactive)
same,GI50,UACC-62,> 100 µM (inactive)
same,GI50,EKVX,> 100 µM (inactive)
same,GI50,SW-620,> 100 µM (inactive)
same,GI50,SNB-78,> 100 µM (inactive)
same,GI50,NCI-H226,> 100 µM (inactive)
same,GI50,A549,> 100 µM (inactive)
same,GI50,UACC-257,> 100 µM (inactive)
same,GI50,SNB-75,> 100 µM (inactive)
same,GI50,DLD-1,> 100 µM (inactive)
same,GI50,OVCAR-4,> 100 µM (inactive)
same,GI50,OVCAR-3,> 100 µM (inactive)
same,GI50,U-251,> 100 µM (inactive)
same,GI50,RPMI-8226,> 100 µM (inactive)
same,GI50,SK-MEL-28,> 100 µM (inactive)
same,GI50,HCC 2998,> 100 µM (inactive)
same,GI50,SK-OV-3,> 100 µM (inactive)
same,GI50,NCI-H522,> 100 µM (inactive)
same,GI50,LXFL 529,> 100 µM (inactive)
same,GI50,SNB-19,> 100 µM (inactive)
same,GI50,SK-MEL-5,> 100 µM (inactive)
same,GI50,HOP-92,> 100 µM (inactive)
same,GI50,DMS-114,> 100 µM (inactive)
same,GI50,NCI-H23,> 100 µM (inactive)
same,GI50,LOX IMVI,> 100 µM (inactive)
same,GI50,IGROV-1,> 100 µM (inactive)
same,GI50,HL-60,> 100 µM (inactive)
same,GI50,HT-29,> 100 µM (inactive)
NC(=O)c1cn(C2OC(CO)C(O)C2O)c2ncnc(N)c12 (stereo not drawn),GI50,DMS-273,0.0213 µM (active)
same,GI50,UO-31,0.07 µM (active)
same,GI50,MCF7,0.07 µM (active)
same,GI50,EKVX,0.0453 µM (active)
same,GI50,A498,0.0724 µM (active)
same,GI50,U-251,0.07 µM (active)
COC(=O)[C@@]12C3=NO[C@]1(C(=O)OC)C(O[Si](C)(C)C(C)(C)C)[C@H]1OC(C)(C)O[C@H]1[C@@H]2C(OCc1ccccc1)CC3 (stereo partly drawn),GI50,M14,26.9 µM (inactive)
same,GI50,OVCAR-8,92.5 µM (inactive)
same,GI50,HCT-15,> 100 µM
same,GI50,K562,> 100 µM (inactive)
same,GI50,CCRF-CEM,> 100 µM (inactive)
same,GI50,DMS-273,52 µM (inactive)
same,GI50,MOLT-4,9.66 µM (inactive)
same,GI50,SF-539,59.2 µM (inactive)
same,GI50,TK-10,84.1 µM (inactive)
same,GI50,M19-MEL,71.8 µM (inactive)
same,GI50,COLO 205,57.1 µM (inactive)
same,GI50,UO-31,41.3 µM (inactive)
same,GI50,KM12,28.3 µM (inactive)
same,GI50,NCI-H460,6.21 µM (inactive)
same,GI50,SN12C,89.7 µM (inactive)
same,GI50,UACC-62,41.7 µM (inactive)
same,GI50,EKVX,89.1 µM (inactive)
same,GI50,SW-620,> 100 µM (inactive)
same,GI50,HCT-116,41.8 µM (inactive)
same,GI50,NCI-H226,88.7 µM (inactive)
same,GI50,SK-MEL-2,28.8 µM (inactive)
same,GI50,786-0,70.5 µM (inactive)
same,GI50,A549,34 µM (inactive)
same,GI50,SNB-75,17.9 µM (inactive)
same,GI50,DLD-1,85.1 µM (inactive)
same,GI50,A498,38.3 µM (inactive)
same,GI50,OVCAR-4,22.3 µM (inactive)
same,GI50,OVCAR-3,46.5 µM (inactive)
same,GI50,SF-295,37.3 µM (inactive)
same,GI50,U-251,43.5 µM (inactive)
same,GI50,RPMI-8226,> 100 µM (inactive)
same,GI50,SK-MEL-28,> 100 µM (inactive)
same,GI50,HCC 2998,63.1 µM (inactive)
same,GI50,SK-OV-3,25.6 µM (inactive)
same,GI50,HOP-18,> 100 µM (inactive)
same,GI50,LXFL 529,60 µM (inactive)
same,GI50,SNB-19,25.8 µM (inactive)
same,GI50,SK-MEL-5,35.1 µM (inactive)
same,GI50,ACHN,13.2 µM (inactive)
same,GI50,HOP-92,2.75 µM (inactive)
same,GI50,DMS-114,36.6 µM (inactive)
same,GI50,KM-20L2,71.1 µM (inactive)
same,GI50,NCI-H23,80.4 µM (inactive)
same,GI50,LOX IMVI,69 µM (inactive)
same,GI50,IGROV-1,42.7 µM (inactive)
same,GI50,HL-60,6.49 µM (inactive)
same,GI50,HT-29,67.3 µM (inactive)
